Experimental data published in the NIST ThermoML archive (doi:10.1016/j.fluid.2016.08.014).

How the values were obtained:
[1] = Liquid, Vibrating tube method
[2] = refractive index (Na D-line) (dimensionless); conditions: 298.15 K; 101.33 kPa; Liquid; Standard Abbe refractometry

CC(=O)N(C)C [N,N-dimethylethanamide]
[1]
Conditions | mass density [kg/m3]
293.15 K, 300 kPa | 941
293.15 K, 2600 kPa | 943
293.15 K, 5100 kPa | 944
293.15 K, 10100 kPa | 947
293.15 K, 14900 kPa | 950
293.15 K, 20200 kPa | 953
293.15 K, 25200 kPa | 955
293.15 K, 30400 kPa | 958
298.15 K, 101.33 kPa | 936.729
303.2 K, 300 kPa | 932
303.2 K, 2500 kPa | 933
303.2 K, 5100 kPa | 935
303.2 K, 10200 kPa | 938
303.2 K, 15200 kPa | 941
303.2 K, 20200 kPa | 944
303.2 K, 24900 kPa | 947
303.2 K, 30200 kPa | 950
313.15 K, 100 kPa | 922
313.15 K, 2500 kPa | 924
313.15 K, 5200 kPa | 926
313.15 K, 10000 kPa | 929
313.15 K, 15200 kPa | 932
313.15 K, 20100 kPa | 935
313.15 K, 25200 kPa | 938
313.15 K, 30200 kPa | 941
323.15 K, 100 kPa | 912
323.15 K, 2500 kPa | 915
323.15 K, 5000 kPa | 917
323.15 K, 10100 kPa | 920
323.15 K, 15100 kPa | 923
323.15 K, 20100 kPa | 927
323.15 K, 25100 kPa | 930
323.15 K, 30500 kPa | 933
333.15 K, 100 kPa | 903
333.15 K, 2500 kPa | 906
333.15 K, 5100 kPa | 907
333.15 K, 10100 kPa | 911
333.15 K, 15100 kPa | 915
333.15 K, 20200 kPa | 918
333.15 K, 25000 kPa | 921
333.15 K, 30100 kPa | 924
343.15 K, 100 kPa | 894
343.15 K, 2600 kPa | 896
343.15 K, 5100 kPa | 898
343.15 K, 10000 kPa | 902
343.15 K, 15000 kPa | 906
343.15 K, 20200 kPa | 909
343.15 K, 25100 kPa | 913
343.15 K, 30300 kPa | 916
353.15 K, 100 kPa | 885
353.15 K, 2500 kPa | 887
353.15 K, 5200 kPa | 889
353.15 K, 10000 kPa | 893
353.15 K, 14900 kPa | 897
353.15 K, 20200 kPa | 901
353.15 K, 25200 kPa | 905
353.15 K, 30100 kPa | 908
363.15 K, 200 kPa | 876
363.15 K, 2500 kPa | 878
363.15 K, 5000 kPa | 880
363.15 K, 10100 kPa | 884
363.15 K, 15200 kPa | 888
363.15 K, 20300 kPa | 892
363.15 K, 25200 kPa | 896
363.15 K, 30000 kPa | 899
373.15 K, 100 kPa | 866
373.15 K, 2600 kPa | 868
373.15 K, 5100 kPa | 871
373.15 K, 10000 kPa | 875
373.15 K, 15100 kPa | 880
373.15 K, 20300 kPa | 884
373.15 K, 25100 kPa | 888
373.15 K, 30600 kPa | 892
383.15 K, 100 kPa | 856
383.15 K, 2500 kPa | 859
383.15 K, 5000 kPa | 861
383.15 K, 10000 kPa | 866
383.15 K, 15000 kPa | 870
383.15 K, 20300 kPa | 875
383.15 K, 25300 kPa | 879
383.15 K, 30200 kPa | 883
393.15 K, 15000 kPa | 870
403.15 K, 100 kPa | 837
403.15 K, 2500 kPa | 840
403.15 K, 5100 kPa | 843
403.15 K, 10200 kPa | 848
403.15 K, 15000 kPa | 853
403.15 K, 20700 kPa | 858
403.15 K, 25200 kPa | 862
403.15 K, 30900 kPa | 867
413.15 K, 100 kPa | 826
413.15 K, 2600 kPa | 830
413.15 K, 5000 kPa | 833
413.15 K, 10100 kPa | 838
413.15 K, 15100 kPa | 844
413.15 K, 20100 kPa | 849
413.15 K, 25200 kPa | 854
413.15 K, 30200 kPa | 858

Conditions | refractive index
[2] | 1.43615

CNC=O [N-methylformamide]
[1]
Conditions | mass density [kg/m3]
293.15 K, 200 kPa | 1004
293.15 K, 500 kPa | 1004
293.15 K, 1000 kPa | 1004
293.15 K, 2500 kPa | 1005
293.15 K, 5000 kPa | 1006
293.15 K, 7600 kPa | 1008
293.15 K, 10100 kPa | 1009
293.15 K, 15000 kPa | 1012
293.15 K, 20100 kPa | 1015
293.15 K, 25100 kPa | 1017
293.15 K, 30100 kPa | 1020
293.15 K, 35000 kPa | 1023
298.15 K, 101.33 kPa | 999.361
303.15 K, 200 kPa | 995
303.15 K, 500 kPa | 995
303.15 K, 1100 kPa | 995
303.15 K, 2500 kPa | 996
303.15 K, 5100 kPa | 998
303.15 K, 7600 kPa | 999
303.15 K, 10000 kPa | 1000
303.15 K, 15100 kPa | 1004
303.15 K, 20100 kPa | 1006
303.15 K, 25100 kPa | 1009
303.15 K, 30000 kPa | 1012
303.15 K, 35000 kPa | 1014
313.15 K, 200 kPa | 986
313.15 K, 500 kPa | 986
313.15 K, 1100 kPa | 987
313.15 K, 2600 kPa | 987
313.15 K, 5100 kPa | 989
313.15 K, 7500 kPa | 990
313.15 K, 10100 kPa | 992
313.15 K, 15000 kPa | 995
313.15 K, 20000 kPa | 998
313.15 K, 25100 kPa | 1001
313.15 K, 30000 kPa | 1004
313.15 K, 35000 kPa | 1006
323.15 K, 100 kPa | 977
323.15 K, 500 kPa | 977
323.15 K, 1000 kPa | 978
323.15 K, 2500 kPa | 979
323.15 K, 5000 kPa | 980
323.15 K, 7500 kPa | 982
323.15 K, 10000 kPa | 984
323.15 K, 15100 kPa | 987
323.15 K, 20100 kPa | 990
323.15 K, 25000 kPa | 993
323.15 K, 30100 kPa | 996
323.15 K, 35100 kPa | 999
333.15 K, 100 kPa | 969
333.15 K, 500 kPa | 969
333.15 K, 1000 kPa | 969
333.15 K, 2500 kPa | 970
333.15 K, 5000 kPa | 972
333.15 K, 7500 kPa | 974
333.15 K, 10000 kPa | 975
333.15 K, 15000 kPa | 979
333.15 K, 20100 kPa | 982
333.15 K, 25000 kPa | 985
333.15 K, 30000 kPa | 988
333.15 K, 35000 kPa | 990
343.15 K, 100 kPa | 960
343.15 K, 500 kPa | 960
343.15 K, 1000 kPa | 960
343.15 K, 2500 kPa | 962
343.15 K, 5100 kPa | 963
343.15 K, 7500 kPa | 965
343.15 K, 10100 kPa | 967
343.15 K, 15100 kPa | 970
343.15 K, 20000 kPa | 973
343.15 K, 25100 kPa | 977
343.15 K, 30100 kPa | 980
343.15 K, 35100 kPa | 983
353.15 K, 100 kPa | 950
353.15 K, 500 kPa | 950
353.15 K, 1000 kPa | 952
353.15 K, 2500 kPa | 953
353.15 K, 5100 kPa | 955
353.15 K, 7600 kPa | 957
353.15 K, 10000 kPa | 958
353.15 K, 15100 kPa | 962
353.15 K, 20100 kPa | 965
353.15 K, 25000 kPa | 969
353.15 K, 30100 kPa | 972
353.15 K, 35100 kPa | 975
363.15 K, 100 kPa | 942
363.15 K, 500 kPa | 943
363.15 K, 1000 kPa | 943
363.15 K, 2500 kPa | 944
363.15 K, 5100 kPa | 946
363.15 K, 7600 kPa | 948
363.15 K, 10100 kPa | 950
363.15 K, 15100 kPa | 954
363.15 K, 20100 kPa | 957
363.15 K, 25000 kPa | 960
363.15 K, 30100 kPa | 964
363.15 K, 35000 kPa | 967
373.15 K, 100 kPa | 934
373.15 K, 500 kPa | 934
373.15 K, 1000 kPa | 934
373.15 K, 2500 kPa | 936
373.15 K, 5100 kPa | 938
373.15 K, 7600 kPa | 940
373.15 K, 10000 kPa | 941
373.15 K, 15100 kPa | 945
373.15 K, 20100 kPa | 949
373.15 K, 25000 kPa | 952
373.15 K, 30100 kPa | 956
373.15 K, 35000 kPa | 959
398.15 K, 100 kPa | 911
398.15 K, 500 kPa | 912
398.15 K, 1100 kPa | 912
398.15 K, 2500 kPa | 913
398.15 K, 5000 kPa | 916
398.15 K, 7600 kPa | 918
398.15 K, 10000 kPa | 920
398.15 K, 15000 kPa | 924
398.15 K, 20100 kPa | 928
398.15 K, 25000 kPa | 932
398.15 K, 30000 kPa | 936
398.15 K, 35100 kPa | 940
423.15 K, 100 kPa | 888
423.15 K, 500 kPa | 889
423.15 K, 1000 kPa | 889
423.15 K, 2600 kPa | 890
423.15 K, 5100 kPa | 893
423.15 K, 7500 kPa | 896
423.15 K, 10000 kPa | 898
423.15 K, 15200 kPa | 903
423.15 K, 20100 kPa | 907
423.15 K, 25100 kPa | 911
423.15 K, 30100 kPa | 916
423.15 K, 35100 kPa | 920

Conditions | refractive index
[2] | 1.43063
